# “And” between values parts separate entries of the source, which are not always exact repeats. Equal values may be shown once.
# Experiments:
# 5-lipoxygenase = target: T1, 5-lipoxygenase (Rattus norvegicus, UniProt P12527); test: Inhibitory activity over 5-lipoxygenase ex-vivo in rat whole blood (LTB4 by EIA); conditions: for LTB4 (ng/ml), group mean / LTB4 (ng/ml), individual samples: blood 1 h after last dose, calcium ionophore 30 μM; for LTB4 (ng/ml), individual samples / LTB4 % inhib., individual samples: individual rats
# T1 construct: leukotriene B4 formation (LTB4) by 5-lipoxygenase ex-vivo in rat whole blood stimulated with calcium ionophore; from tissue
# T1 sequence (P12527 1-673): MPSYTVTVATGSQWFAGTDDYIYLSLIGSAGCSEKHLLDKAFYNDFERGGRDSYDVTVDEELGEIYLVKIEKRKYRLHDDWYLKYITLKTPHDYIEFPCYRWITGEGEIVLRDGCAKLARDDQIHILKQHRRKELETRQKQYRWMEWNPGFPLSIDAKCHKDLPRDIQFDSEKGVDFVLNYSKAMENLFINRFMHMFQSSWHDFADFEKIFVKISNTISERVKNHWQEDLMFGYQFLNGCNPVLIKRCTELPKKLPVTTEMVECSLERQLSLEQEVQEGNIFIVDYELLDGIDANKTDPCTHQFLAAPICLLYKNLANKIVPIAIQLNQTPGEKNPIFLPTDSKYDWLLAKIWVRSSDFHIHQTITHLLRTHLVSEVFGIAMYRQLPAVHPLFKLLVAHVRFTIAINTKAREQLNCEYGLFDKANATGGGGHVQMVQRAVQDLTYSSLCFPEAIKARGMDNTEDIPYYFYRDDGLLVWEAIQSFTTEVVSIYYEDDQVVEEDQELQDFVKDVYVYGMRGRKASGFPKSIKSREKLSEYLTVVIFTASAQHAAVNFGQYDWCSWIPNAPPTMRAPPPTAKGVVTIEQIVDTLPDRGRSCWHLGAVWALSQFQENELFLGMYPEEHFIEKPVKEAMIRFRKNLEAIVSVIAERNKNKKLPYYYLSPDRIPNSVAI
# Description: In the example shown 3 groups of animals (rats) were used, with 6 rats in each group. The groups were;
# 1 group 1: control (vehicle)
# 2 group 2: treated with micronized test substance (10 mg/Kg)
# 3 group 3: treated with non-micronized test substance (10 mg/Kg)
# The distribution of animals to each group was done in a randomized manner at the start of the study.
# The test and reference substances were administered orally as a suspension in 0.25% carboximethylcellulose in a dosing volume of 4 ml/kg via an oral cannula.
# Test substance administration was carried out once every 24 hours (09 h 00 min) for 5 consecutive days. On the 5th day a blood sample was obtained from each animal (1 mL) 1 hour after administration of the test and reference substances. Blood samples were obtained from the posterior (abdominal) vena cava in sterile syringes containing sodium citrate (4%) as an anticoagulant. Each blood sample was divided into two 0.5 ml aliquots (duplicates). A 1 hour time lapse after test substance administration was used before obtaining the blood samples as it was determined in preliminary studies that this is when there is a greater inhibition of leukotriene synthesis by the test substance.
# Immediately after collection of the blood samples, the duplicated aliquots were incubated at 37° C. for 10 min. After this time, the aliquots were stimulated with calcium ionophore (30 μM, final concentration) for 30 min at 37° C. Once the incubation period was over the aliquots were centrifuged at 12.000 g for 2 minutes. The resulting plasma was separated and stored at −20° C. for its posterior analysis. In these samples the concentration of leukotriene B4 was determined by enzyme immunoassay (kit EIA; Amersham).
# [1] = system: pulmonary fibrosis induced by bleomycin in C57/BL6 mice; test: Model of pulmonary fibrosis induced by bleomycin in mice (bronchoalveolar lavage fluid); format: in vivo, mouse
# Description: In the study, female, young and healthy C57/BL6 mice were used, of approximately 9-10 weeks of age at the start of the experimental phase. The choice of C57/BL6 mice was because this is the most commonly used mouse strain in the pulmonary fibrosis model.
# Three experimental groups were used in the study:
# Group A: (positive control): Bleomycin+Vehicle (PBS) n=10
# Group B: Bleomycin+2,4,6-triiodophenol micronized 10 mg/kg q.d. (every 12 hours) n=10
# Group C: No treatment (healthy animals) n=1
# Where n is the number of animals in each experimental group.
# The test item was administered as a suspension in 0.25% methylcellulose (the vehicle). The positive control group received the vehicle.
# Both the test item and the vehicle were administered orally in a volume of 5 ml/kg twice per day (q.d.) every 12 hours.
# On day 0 pulmonary fibrosis was induced by intratracheal instillation of 0.075 units of bleomycin in 50 μl of sterile saline solution into the lungs of each animal. Immediately afterwards 150 μl of air were introduced intratracheally into each mouse to aid in the pulmonary distribution of the bleomycin.
# On day 7 after bleomycin administration, treatment with the test item or vehicle was commenced by oral administration. Treatment was carried out twice per day (every 12 hours) and was continued for 15 days.
# On day 21 after bleomycin administration a bronchoalveolar lavage was carried out on all animals. To this effect, mice were anaesthetized with sodium pentobarbital and the trachea of each animal was cannulated. Afterwards 1 ml of PBS at 37° C. was instilled into each lung and re-aspirated back with the use of a syringe. This process was repeated 5 times, each time collecting the aspirated liquid in a vial and combining the liquid obtained from the 5 lavages. The recovered volume of bronchoalveolar lavage was adjusted for all animals to 5 mls.
# Once the bronchoalveolar lavage fluid had been obtained, a sample was taken in order to determine cellular viability by trypan blue exclusion. Additionally, a sample of lavage fluid was kept frozen (−20° C.) for subsequent determination of CCL5 and TGF-β concentration by ELISA.
# The remaining bronchoalveolar lavage fluid was spun in a cytocentrifuge and stained (Diff-Quick) in order to carry out a differential cell count.
# All animals were weighed on arrival at the laboratory and each day during the treatment phase of the experimental period until the end of the study.
# For each animal cell viability in bronchoalveolar lavage fluid was determined by Trypan Blue exclusion, and a differential cell count was done by staining cytocentrifuged samples with Diff-Quick stain (this was done on a population of approximately 200 cells per sample). Additionally, the concentration of CCL5 and TGF-β were also determined in bronchoalveolar lavage fluid samples by the use of commercially available ELISA kits specific for mice chemokines from R&D Systems.
# The statistical significance of the results was evaluated by use of the statistical package Graphpad Instat 3.
# All comparisons were evaluated by the use of Student's t-test (two-way, unpaired data). Values of P≦0.05 were taken as significant.
# [2] = 10 mg/Kg oral once daily 5 days, 10 mg/kg
# [3] = 10 mg/Kg oral once daily 5 days, vs control, 10 mg/kg
# [4] = 10 mg/kg oral twice per day, starting 7 days after bleomycin
# [5] = group mean, day 21, 10 mg/kg oral twice per day from day 7
# [6] = group mean, day 21 after bleomycin, 10 mg/kg oral twice per day from day 7
# [7] = individual mice, day 21, 10 mg/kg oral twice per day from day 7, listed as Group B, 10 mg/kg
Structure (SMILES),"degree of LTB4 inhibition compared with the other form (5-lipoxygenase; 10 mg/kg, 5 days oral)","inhibition of leukotriene B4 formation by 5-lipoxygenase ex-vivo (in words) (5-lipoxygenase; 10 mg/kg, 5 days oral, P<0.05 ANOVA+Dunnett's test)","LTB4 (ng/ml), group mean (5-lipoxygenase; group mean, 6 rats, 10 mg/Kg oral once daily 5 days, 10 mg/kg)","LTB4 (ng/ml), individual samples (5-lipoxygenase; [2])","LTB4 % inhib., individual samples (5-lipoxygenase; [3])","inhibition at 10 mg/kg (5-lipoxygenase; rat, po, group mean, 6 rats, 10 mg/Kg oral once daily 5 days, vs control, read-out: LTB4 % inhib., group mean)","effect on bleomycin-induced increase of CCL5 and TGFβ in bronchoalveolar lavage fluid (in words) [1, 4]","effect on bleomycin-induced lymphocyte and neutrophil percentages in bronchoalveolar lavage fluid (in words) [1, 4]","CCL5 concentration in BALF, mean [1, 5]","TGFβ concentration in BALF, mean [1, 5]","Lymphocytes, differential cell count in bronchoalveolar lavage fluid (%) [1, 6]","Macrophages, differential cell count in bronchoalveolar lavage fluid (%) [1, 6]","Neutrophils, differential cell count in bronchoalveolar lavage fluid (%) [1, 6]","CCL5 concentration in BALF, individual animals [1, 7]","TGFβ concentration in BALF, individual animals [1, 7]","LTB4 (ng/ml), group mean (5-lipoxygenase; group mean, 6 rats, 10 mg/Kg oral once daily 5 days, listed as S. Ref., 10 mg/kg)","LTB4 % inhib., group mean (5-lipoxygenase; group mean, 6 rats, 10 mg/Kg oral once daily 5 days, vs control, listed as S. Ref., 10 mg/kg)"
"Oc1c(I)cc(I)cc1I [Micronized, 2,4,6-triiodophenol]",superior to that obtained with the non-micronized product,"inhibits, in a statistically significant manner",5.492 ng/mL,6.549 ng/mL and 5.032 ng/mL and 4.583 ng/mL and 6.118 ng/mL and 4.602 ng/mL and 6.067 ng/mL,20.176% and 38.665% and 44.140% and 25.423% and 43.902% and 26.054%,33.1%,very significant inhibition,reduction of the bleomycin-induced increase in lymphocytes and neutrophil percentages,6.952 pg/mL,40.731 pg/mL,34.35%,60.33%,5.32%,1.887 pg/mL and 3.041 pg/mL and 6.426 pg/mL and 24.658 pg/mL and 3.426 pg/mL and 2.272 pg/mL,6.319 pg/mL and 8.389 pg/mL and 26.335 pg/mL and 38.069 pg/mL and 121.586 pg/mL and 9.770 pg/mL and 74.651 pg/mL,,
"Oc1c(I)cc(I)cc1I [Non-Micronized, 2,4,6-triiodophenol]",,,,6.862 ng/ml and 4.355 ng/ml (2×) and 4.905 ng/ml and 8.818 ng/ml and 9.682 ng/ml,16.356% and 46.917% and 40.210% and −7.480% and −18.013%,,,,,,,,,,,6.496 ng/mL,20.818%

# — US7935853B2, “Micronized composition of a 2,4-disubstituted phenol derivative” (priority 2008, dated 2011)
